Legend:
[1] = biological target: HDAC5 (Homo sapiens, UniProt Q9UQL6); assay: Multiplexed selectivity western blot in Jurkat cells, HDAC5; assay type: cell-based; conditions: Jurkat E6-1, 24 h, concentration response
[2] = biological target: HDAC9 (Homo sapiens, UniProt Q9UKV0); assay: Multiplexed selectivity western blot in Jurkat cells, HDAC9; assay type: cell-based; conditions: Jurkat E6-1, 24 h, concentration response
[3] = tested on: class I HDAC; conditions: read-out: HDAC cellular IC50 class I; Jurkat E6.1, treated for 24 h; substrate Boc-Lys(Ac)AMC
[4] = biological target: HDAC3 (Homo sapiens, UniProt O15379); assay: Multiplexed selectivity western blot in Jurkat cells, HDAC3; assay type: cell-based; conditions: Jurkat E6-1, 24 h, concentration response up to 10 μM
[5] = biological target: T1, HDAC4 (Homo sapiens, UniProt P56524); assay: HDAC4 degradation by western blot in Jurkat E6-1 cells; assay type: cell-based; conditions: Jurkat E6-1, 24 h; for hook effect: immunoblot, at 10 μM
Target sequence in this assay (P56524 whole entry): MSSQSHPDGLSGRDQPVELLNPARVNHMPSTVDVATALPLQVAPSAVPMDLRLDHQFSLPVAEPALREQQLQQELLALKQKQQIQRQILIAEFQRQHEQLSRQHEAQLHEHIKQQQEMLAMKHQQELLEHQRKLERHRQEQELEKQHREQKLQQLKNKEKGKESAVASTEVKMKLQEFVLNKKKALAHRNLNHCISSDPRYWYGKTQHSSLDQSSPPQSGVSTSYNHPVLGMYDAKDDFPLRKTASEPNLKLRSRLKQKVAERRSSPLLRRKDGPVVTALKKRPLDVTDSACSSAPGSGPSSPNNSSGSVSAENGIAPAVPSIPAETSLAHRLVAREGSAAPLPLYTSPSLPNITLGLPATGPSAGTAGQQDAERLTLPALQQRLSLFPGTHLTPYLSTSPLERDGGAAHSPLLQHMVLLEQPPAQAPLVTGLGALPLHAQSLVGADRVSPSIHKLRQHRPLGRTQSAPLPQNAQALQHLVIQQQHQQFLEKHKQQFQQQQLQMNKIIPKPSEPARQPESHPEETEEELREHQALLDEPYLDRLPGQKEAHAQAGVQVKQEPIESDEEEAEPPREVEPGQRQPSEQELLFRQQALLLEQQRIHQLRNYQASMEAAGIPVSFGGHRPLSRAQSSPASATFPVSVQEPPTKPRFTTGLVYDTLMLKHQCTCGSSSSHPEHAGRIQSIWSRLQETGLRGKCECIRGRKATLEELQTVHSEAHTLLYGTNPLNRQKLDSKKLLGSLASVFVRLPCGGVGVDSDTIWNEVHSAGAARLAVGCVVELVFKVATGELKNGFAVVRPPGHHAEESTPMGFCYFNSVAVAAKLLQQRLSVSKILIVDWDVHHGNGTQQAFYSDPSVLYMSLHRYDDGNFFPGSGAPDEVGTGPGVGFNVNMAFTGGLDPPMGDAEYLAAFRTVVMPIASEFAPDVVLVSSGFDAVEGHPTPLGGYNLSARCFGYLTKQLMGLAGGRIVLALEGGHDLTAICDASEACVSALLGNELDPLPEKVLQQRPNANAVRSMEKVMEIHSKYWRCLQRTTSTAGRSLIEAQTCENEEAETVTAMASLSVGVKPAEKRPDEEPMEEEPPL

[6] = biological target: T1, HDAC4; assay type: cell-based; conditions: Jurkat E6-1, 6 h; compound 7 at 1 μM, compound 11 at 100 nM
Target sequence in this assay (P56524 whole entry): as above

[7] = biological target: T2, HDAC7 (Homo sapiens, UniProt Q8WUI4); assay: Multiplexed selectivity western blot in Jurkat cells, HDAC7; assay type: cell-based; conditions: Jurkat E6-1, 24 h, concentration response
T2 sequence (Q8WUI4 1-952): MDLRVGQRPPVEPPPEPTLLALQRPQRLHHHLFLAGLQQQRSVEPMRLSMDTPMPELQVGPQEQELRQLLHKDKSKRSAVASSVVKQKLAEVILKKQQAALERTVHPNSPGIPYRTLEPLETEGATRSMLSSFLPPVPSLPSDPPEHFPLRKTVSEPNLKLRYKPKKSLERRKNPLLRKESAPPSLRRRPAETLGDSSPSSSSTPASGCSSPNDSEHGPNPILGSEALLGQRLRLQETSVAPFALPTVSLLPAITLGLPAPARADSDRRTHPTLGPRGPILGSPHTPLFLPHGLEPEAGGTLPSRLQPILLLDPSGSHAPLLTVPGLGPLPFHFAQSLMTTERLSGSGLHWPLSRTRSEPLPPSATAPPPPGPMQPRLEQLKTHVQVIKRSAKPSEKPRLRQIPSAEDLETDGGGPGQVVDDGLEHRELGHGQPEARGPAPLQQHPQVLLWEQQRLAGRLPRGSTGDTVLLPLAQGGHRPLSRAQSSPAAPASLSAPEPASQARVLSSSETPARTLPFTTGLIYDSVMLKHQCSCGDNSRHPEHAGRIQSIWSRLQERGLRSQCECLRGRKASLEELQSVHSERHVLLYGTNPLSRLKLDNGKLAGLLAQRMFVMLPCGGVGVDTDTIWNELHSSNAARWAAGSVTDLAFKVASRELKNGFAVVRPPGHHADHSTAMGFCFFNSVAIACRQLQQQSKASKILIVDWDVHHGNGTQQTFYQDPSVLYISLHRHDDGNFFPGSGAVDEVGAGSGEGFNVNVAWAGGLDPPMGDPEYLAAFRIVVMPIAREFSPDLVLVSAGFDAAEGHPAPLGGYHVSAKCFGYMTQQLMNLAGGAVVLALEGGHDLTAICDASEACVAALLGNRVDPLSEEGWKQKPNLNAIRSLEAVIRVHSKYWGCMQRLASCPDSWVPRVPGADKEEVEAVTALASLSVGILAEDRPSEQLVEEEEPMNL

[8] = biological target: T1, HDAC4; assay: Recombinant HDAC4 enzymatic inhibition assay; conditions: HDAC enzymatic activity assays
Target sequence in this assay (P56524 655-1084 limits assumed): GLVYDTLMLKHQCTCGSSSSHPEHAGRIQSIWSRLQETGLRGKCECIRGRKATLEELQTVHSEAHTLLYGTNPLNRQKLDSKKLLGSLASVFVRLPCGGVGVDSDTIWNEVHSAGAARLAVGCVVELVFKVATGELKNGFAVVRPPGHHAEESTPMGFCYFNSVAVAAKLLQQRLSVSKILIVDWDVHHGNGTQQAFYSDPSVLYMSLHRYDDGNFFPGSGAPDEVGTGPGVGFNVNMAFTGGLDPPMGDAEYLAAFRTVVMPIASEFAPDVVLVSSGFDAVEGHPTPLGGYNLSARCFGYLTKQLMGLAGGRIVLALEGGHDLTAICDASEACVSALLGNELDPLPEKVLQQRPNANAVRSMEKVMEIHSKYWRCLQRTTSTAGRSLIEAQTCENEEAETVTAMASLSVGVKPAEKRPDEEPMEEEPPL

[9] = biological target: HDAC1 (Homo sapiens, UniProt Q13547); assay: Multiplexed selectivity western blot in Jurkat cells, HDAC1; assay type: cell-based; conditions: Jurkat E6-1, 24 h, concentration response
[10] = biological target: HDAC4 (Mus musculus, UniProt Q6NZM9); conditions: R6/2 mice, chronic administration; cited from earlier work
[11] = tested on: aggregate load; conditions: R6/2 mice, chronic administration, cortex and brain stem; cited from earlier work

HDAC3, sequence (O15379 whole entry): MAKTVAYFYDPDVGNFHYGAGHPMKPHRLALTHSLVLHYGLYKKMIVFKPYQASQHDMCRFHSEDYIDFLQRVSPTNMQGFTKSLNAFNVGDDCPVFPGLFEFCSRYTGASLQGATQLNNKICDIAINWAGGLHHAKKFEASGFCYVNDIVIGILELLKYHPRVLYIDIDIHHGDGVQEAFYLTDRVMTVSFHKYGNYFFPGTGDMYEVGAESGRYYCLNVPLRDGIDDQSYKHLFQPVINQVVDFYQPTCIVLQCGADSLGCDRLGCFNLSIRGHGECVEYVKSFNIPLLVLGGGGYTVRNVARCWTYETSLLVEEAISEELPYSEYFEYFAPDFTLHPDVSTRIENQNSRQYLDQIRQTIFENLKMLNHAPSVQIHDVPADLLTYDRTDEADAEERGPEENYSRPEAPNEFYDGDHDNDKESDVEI
HDAC1, sequence (Q13547 whole entry): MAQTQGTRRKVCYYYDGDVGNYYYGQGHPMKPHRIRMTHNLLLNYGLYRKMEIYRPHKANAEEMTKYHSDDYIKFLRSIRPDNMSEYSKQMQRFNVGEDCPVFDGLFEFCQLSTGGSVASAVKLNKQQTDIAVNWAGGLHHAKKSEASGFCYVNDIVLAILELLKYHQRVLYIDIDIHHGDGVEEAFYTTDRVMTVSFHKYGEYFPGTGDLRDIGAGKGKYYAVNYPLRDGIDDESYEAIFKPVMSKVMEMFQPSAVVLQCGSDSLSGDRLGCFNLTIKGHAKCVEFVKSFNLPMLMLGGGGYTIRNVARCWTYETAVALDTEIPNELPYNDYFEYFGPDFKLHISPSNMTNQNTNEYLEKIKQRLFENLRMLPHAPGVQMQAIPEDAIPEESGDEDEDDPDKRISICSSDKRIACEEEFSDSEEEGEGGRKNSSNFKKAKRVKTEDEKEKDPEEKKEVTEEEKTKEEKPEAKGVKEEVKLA
HDAC9, sequence (Q9UKV0 whole entry): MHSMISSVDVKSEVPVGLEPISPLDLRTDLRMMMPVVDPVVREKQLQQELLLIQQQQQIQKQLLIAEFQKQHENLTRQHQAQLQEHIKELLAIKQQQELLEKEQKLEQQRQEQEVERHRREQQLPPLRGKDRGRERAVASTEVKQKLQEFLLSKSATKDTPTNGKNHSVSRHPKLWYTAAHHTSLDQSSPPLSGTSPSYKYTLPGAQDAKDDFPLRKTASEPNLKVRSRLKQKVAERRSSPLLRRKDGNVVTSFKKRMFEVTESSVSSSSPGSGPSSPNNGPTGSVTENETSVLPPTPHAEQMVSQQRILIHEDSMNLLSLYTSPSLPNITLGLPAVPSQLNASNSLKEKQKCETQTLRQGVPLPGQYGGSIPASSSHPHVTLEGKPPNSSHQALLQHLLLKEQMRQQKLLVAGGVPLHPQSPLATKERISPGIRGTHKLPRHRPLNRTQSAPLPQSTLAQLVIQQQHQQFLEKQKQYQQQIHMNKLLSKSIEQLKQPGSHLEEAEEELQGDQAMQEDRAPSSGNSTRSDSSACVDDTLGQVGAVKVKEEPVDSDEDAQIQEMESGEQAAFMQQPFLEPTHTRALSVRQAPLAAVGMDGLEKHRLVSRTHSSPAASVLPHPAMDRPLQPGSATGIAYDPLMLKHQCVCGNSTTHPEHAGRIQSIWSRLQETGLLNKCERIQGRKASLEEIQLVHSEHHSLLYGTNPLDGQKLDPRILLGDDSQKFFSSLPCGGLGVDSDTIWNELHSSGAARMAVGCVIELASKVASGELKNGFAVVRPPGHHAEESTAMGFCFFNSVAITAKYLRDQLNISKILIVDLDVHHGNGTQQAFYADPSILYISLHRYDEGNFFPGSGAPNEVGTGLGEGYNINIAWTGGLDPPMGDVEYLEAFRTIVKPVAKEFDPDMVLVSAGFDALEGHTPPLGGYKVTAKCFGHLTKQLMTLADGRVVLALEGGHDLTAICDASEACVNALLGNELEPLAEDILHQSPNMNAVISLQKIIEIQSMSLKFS
HDAC5, sequence (Q9UQL6 whole entry): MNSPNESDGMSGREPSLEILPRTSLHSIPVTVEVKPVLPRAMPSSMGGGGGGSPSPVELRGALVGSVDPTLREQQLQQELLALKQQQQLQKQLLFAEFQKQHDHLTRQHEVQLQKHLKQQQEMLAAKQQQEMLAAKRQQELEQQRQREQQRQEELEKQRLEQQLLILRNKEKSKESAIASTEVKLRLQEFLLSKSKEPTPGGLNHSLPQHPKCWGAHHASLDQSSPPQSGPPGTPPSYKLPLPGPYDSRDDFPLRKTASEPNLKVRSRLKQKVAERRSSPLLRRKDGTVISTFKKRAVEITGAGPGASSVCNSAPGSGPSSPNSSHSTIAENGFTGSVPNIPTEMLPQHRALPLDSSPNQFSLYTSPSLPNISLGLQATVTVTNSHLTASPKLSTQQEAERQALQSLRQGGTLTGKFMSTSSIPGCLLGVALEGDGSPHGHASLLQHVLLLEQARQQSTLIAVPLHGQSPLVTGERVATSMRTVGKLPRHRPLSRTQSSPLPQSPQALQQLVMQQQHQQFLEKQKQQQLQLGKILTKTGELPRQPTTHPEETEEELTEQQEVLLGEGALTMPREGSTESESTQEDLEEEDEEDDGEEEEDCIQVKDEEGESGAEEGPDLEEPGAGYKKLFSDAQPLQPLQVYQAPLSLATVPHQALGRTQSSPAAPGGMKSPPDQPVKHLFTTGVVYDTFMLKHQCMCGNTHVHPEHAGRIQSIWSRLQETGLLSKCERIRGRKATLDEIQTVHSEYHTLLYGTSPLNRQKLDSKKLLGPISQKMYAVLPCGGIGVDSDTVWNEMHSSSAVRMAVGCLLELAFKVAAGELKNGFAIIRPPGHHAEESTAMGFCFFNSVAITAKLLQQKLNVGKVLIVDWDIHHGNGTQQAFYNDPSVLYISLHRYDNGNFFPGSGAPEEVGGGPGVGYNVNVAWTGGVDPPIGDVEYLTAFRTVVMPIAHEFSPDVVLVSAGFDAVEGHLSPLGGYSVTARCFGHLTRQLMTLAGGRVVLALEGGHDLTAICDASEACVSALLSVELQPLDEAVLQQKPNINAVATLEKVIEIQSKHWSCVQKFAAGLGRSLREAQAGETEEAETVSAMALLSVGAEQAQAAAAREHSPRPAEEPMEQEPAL

SMILES | degradation of HDAC5 by western blot [1] | degradation of HDAC9 by western blot [2] | IC50 [3] | degradation of HDAC3 by western blot [4] | hook effect [5] | HDAC4 degradation in the presence of 1 μM proteasome inhibitors MG132 or carfilzomib [6] | degradation of HDAC7 by western blot [7] | higher inhibition of HDAC5, HDAC7, and HDAC9 compared to HDAC4 [8] | degradation of HDAC1 by western blot [9] | HDAC4 degradation at 10 μM by immunoblot [5] | level of HDAC4 protein in the cortex and brain stem [10] | aggregate load in the same brain regions [11]
Cc1ncsc1-c1ccc(CNC(=O)[C@@H]2C[C@@H](O)CN2C(=O)[C@@H](NC(=O)COCCOCCOCCOCCOCC(F)(F)c2cnc(-c3ccc(C(C(=O)NO)c4ccccc4F)cc3)nc2)C(C)(C)C)cc1 (stereo partly drawn) [Compound 7, (2S,4R)-1-((2S)-2-(tert-Butyl)-20,20-difluoro-20-(2-(4-(1-(2-fluorophenyl)-2-(hydroxyamino)-2-oxoethyl)phenyl)pyrimidin-5-yl)-4-oxo-6,9,12,15,18-pentaoxa-3-azaicosan-1-oyl)-4-hydroxy-N-(4-(4-methylthiazol-5-yl)benzyl)pyrrolidine-2-carboxamide] | neither compound demonstrated degradation | neither compound demonstrated degradation | > 5 µM | No concentration-dependent reduction in immunoreactivity | hook effect was observed | HDAC4 degradation was prevented | neither compound demonstrated degradation | 3- to 4 fold | neither compound demonstrated degradation | – | – | –
Cc1ncsc1-c1ccc(CNC(=O)[C@@H]2C[C@H](O)CN2C(=O)[C@@H](NC(=O)COCCOCCOCCOCCOCC(F)(F)c2cnc(-c3ccc(C(C(=O)NO)c4ccccc4F)cc3)nc2)C(C)(C)C)cc1 (stereo partly drawn) [Compound 8, (2S,4S)-1-((2S)-2-(tert-Butyl)-20,20-difluoro-20-(2-(4-(1-(2-fluorophenyl)-2-(hydroxyamino)-2-oxoethyl)phenyl)pyrimidin-5-yl)-4-oxo-6,9,12,15,18-pentaoxa-3-azaicosanoyl)-4-hydroxy-N-(4-(4-methylthiazol-5-yl)benzyl)pyrrolidine-2-carboxamide] | – | – | > 5 µM | – | – | – | – | – | – | did not induce HDAC4 degradation | – | –
CCCN(CCCCOCCOCCOCCOCCOCC(=O)N[C@H](C(=O)N1C[C@H](O)C[C@H]1C(=O)NCc1ccc(-c2scnc2C)cc1)C(C)(C)C)C[C@@H](C)NC(=O)c1ccc(-c2noc(C(F)(F)F)n2)cc1 [Compound 11, (2S,4R)-1-((3R,26S)-26-(tert-Butyl)-3-methyl-1,24-dioxo-5-propyl-1-(4-(5-trifluoromethyl-1,2,4-oxadiazol-3-yl)phenyl)-10,13,16,19,22-pentaoxa-2,5,25-triazaheptacosan-27-oyl)-4-hydroxy-N-(4-(4-methylthiazol-5-yl)benzyl)pyrrolidine-2-carboxamide] | neither compound demonstrated degradation | neither compound demonstrated degradation | > 5 µM | showed HDAC3 degradation at the highest dose of 10 μM | hook effect was not observed | same effect was observed | neither compound demonstrated degradation | – | neither compound demonstrated degradation | – | – | –
CCCN(CCCCOCCOCCOCCOCCOCC(=O)N[C@@H](C(=O)N1C[C@@H](O)C[C@@H]1C(=O)NCc1ccc(-c2scnc2C)cc1)C(C)(C)C)C[C@@H](C)NC(=O)c1ccc(-c2noc(C(F)(F)F)n2)cc1 [Compound 12, (2R,4S)-1-((3R,26R)-26-(tert-Butyl)-3-methyl-1,24-dioxo-5-propyl-1-(4-(5-trifluoromethyl-1,2,4-oxadiazol-3-yl)phenyl)-10,13,16,19,22-pentaoxa-2,5,25-triazaheptacosan-27-oyl)-4-hydroxy-N-(4-(4-methylthiazol-5-yl)benzyl)pyrrolidine-2-carboxamide] | – | – | > 5 µM | – | – | – | – | – | – | did not induce HDAC4 degradation | – | –
O=C(CCCCCCC(=O)Nc1ccccc1)NO [SAHA, suberoylanilide hydroxamic acid] | – | – | – | – | – | – | – | – | – | – | reduction in the level of HDAC4 protein | decrease in aggregate load
